The target of this assay is T1, human Nav1.8 (hNav1.8) ion channel (Homo sapiens, UniProt Q9Y5Y9).
T1 construct: expressed in transfected cells
In words: Inhibition of human Nav1.8 stably expressed in SH-SY-5Y cells (membrane potential dye fluorescence assay). It is filed as cell-based. On the procedure:
Inhibition of Human Nav1.8 Stably Expressed in SH-SY-5Y Cells
A SH-SY-5Y neuroblastoma cell line stably expressing the human […] (hNav1.8) ion channel was constructed. This cell line has been used to develop a medium to high throughput assay for determining the ability of test compounds to inhibit membrane depolarisation mediated via the hNav1.8 channel.
SH-SY-5Y hNav1.8 are grown in adherent monolayer culture using 50:50 Ham's F-12/EMEM tissue culture medium supplemented with 15% (v/v) foetal bovine serum; 2 mM L-glutamine, 1% NEAA and 600 μg·ml^−1 Geneticin sulphate. Cells are removed from the tissue culture flask using trypsin/EDTA and re-plated into black walled, clear bottom 96-well assay plates at 50,000 cells·well^−1 24 hours prior to assay.
On the day of assay the cell assay plates are washed to remove cell culture medium using a sodium free assay buffer (145 mM tetramethyl ammonium chloride; 2 mM calcium chloride; 0.8 mM magnesium chloride hexahydrate; 10 mM HEPES; 10 mM glucose; 5 mM potassium chloride, pH 7.4). Fluorescent membrane potential dye solution (FLIPR™ membrane potential dye, Molecular Devices Corporation), containing 10 μM of a pyrethroid to prevent channel inactivation and 250 nM tetrodotoxin (TTX) to reduce interference from TTX-sensitive sodium channels present in the cell line. Test compound, initially dissolved in dimethyl sulfoxide but further diluted in sodium free buffer, is added to achieve the final test concentration range of 100 μM-0.05 μM.
Cell plates are incubated for 30 minutes at room temperature to allow equilibration of dye and test compound. Plates are then transferred to a fluorescence plate reader for fluorescence measurement using an excitation wavelength of 530 nm whilst measuring fluorescence emission at 565 nm. Baseline fluorescence levels are first determined before the addition of a sodium containing buffer (220 mM sodium chloride; 2 mM calcium chloride; 0.8 mM magnesium chloride hexahydrate; […]; 10 mM glucose; 5 mM potassium chloride. pH 7.4) to cause membrane depolarisation in those cells where channel block has not been effected (final sodium concentration=72.5 mM). Membrane depolarisation is registered by an increase in fluorescence emission at 565 nm.
The change in fluorescence seen in each test well upon the addition of sodium containing buffer is calculated relative to the baseline fluorescence for that well. This figure is then used for calculating the IC50 for each test compound.

Setting [1] is: Table 2 (compound numbers of the list in the description), SH-SY-5Y hNav1.8 cells, inhibition of membrane depolarisation, FLIPR membrane potential dye, 250 nM TTX, test concentration range 100 μM-0.05 μM, read-out: IC50.
Setting [2] is: Table 1, SH-SY-5Y hNav1.8 cells, inhibition of membrane depolarisation, FLIPR membrane potential dye, 250 nM TTX, test concentration range 100 μM-0.05 μM, read-out: IC50.

Each structure is given as a SMILES string. Where two headings read alike, the source gives them in different places.

T1 sequence (Q9Y5Y9 whole entry): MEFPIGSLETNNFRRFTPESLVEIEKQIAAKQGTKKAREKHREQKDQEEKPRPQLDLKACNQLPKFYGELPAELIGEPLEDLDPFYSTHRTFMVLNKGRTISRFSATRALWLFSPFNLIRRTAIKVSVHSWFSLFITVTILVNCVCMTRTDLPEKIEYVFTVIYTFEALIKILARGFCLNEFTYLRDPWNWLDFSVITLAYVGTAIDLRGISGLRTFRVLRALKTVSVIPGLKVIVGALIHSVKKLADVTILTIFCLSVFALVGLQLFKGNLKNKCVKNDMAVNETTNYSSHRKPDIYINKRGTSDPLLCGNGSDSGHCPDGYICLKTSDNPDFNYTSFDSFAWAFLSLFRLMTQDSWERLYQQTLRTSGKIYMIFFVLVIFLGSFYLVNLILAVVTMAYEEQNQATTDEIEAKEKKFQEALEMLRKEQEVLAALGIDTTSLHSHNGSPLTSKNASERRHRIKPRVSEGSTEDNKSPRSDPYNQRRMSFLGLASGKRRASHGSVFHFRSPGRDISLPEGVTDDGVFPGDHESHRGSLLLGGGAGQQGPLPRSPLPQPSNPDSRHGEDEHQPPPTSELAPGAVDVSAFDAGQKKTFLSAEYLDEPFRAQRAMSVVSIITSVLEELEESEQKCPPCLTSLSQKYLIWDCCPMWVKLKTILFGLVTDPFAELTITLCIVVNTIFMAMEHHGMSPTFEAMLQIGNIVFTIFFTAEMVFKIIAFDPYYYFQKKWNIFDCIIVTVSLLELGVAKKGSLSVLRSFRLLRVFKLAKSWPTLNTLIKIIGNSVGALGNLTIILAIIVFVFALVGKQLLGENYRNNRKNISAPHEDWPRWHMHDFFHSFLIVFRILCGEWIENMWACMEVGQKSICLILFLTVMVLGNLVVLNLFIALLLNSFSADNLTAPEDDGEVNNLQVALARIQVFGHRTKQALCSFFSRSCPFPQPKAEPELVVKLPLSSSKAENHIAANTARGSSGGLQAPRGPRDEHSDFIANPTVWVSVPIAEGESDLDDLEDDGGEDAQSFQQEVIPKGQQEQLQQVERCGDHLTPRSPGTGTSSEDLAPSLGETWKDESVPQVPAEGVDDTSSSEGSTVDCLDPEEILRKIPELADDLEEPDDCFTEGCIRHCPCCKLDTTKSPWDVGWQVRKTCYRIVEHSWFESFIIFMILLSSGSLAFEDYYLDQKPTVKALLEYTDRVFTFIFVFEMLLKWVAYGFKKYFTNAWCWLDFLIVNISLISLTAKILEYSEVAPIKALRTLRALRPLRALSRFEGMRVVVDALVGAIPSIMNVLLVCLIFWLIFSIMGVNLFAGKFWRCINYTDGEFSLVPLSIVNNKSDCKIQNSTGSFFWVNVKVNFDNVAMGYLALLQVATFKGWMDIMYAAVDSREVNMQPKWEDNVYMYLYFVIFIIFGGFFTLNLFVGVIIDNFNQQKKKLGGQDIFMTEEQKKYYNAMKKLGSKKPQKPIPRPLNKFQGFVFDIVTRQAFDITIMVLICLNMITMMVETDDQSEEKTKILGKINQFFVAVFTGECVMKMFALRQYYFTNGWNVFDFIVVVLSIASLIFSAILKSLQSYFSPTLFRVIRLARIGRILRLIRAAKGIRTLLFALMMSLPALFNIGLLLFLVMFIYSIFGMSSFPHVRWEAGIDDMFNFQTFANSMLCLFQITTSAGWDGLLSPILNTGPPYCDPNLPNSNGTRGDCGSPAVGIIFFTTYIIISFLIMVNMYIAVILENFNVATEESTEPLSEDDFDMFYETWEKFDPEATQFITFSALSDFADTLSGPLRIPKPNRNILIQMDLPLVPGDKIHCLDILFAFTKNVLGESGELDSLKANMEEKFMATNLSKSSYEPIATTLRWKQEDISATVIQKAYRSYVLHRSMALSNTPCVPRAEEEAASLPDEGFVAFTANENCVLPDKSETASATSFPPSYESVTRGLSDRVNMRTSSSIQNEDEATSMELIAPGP

By IC50 is commonly meant the point on the concentration scale where inhibition reaches its midpoint. As for `C=CCOc1cccc2c1CN(CC(=O)NCCC(c1ccccc1)c1ccccc1)CC2` [Compound 97, 2-(8-Allyloxy-3,4-dihydro-1H-isoquinolin-2-yl)-N-(3,3-diphenyl-propyl)-acetamide], the IC50 under setting [1] was 2270 nM.

In the case of `O=C(CNCC(c1ccccc1)c1ccccc1)N1CCc2ccccc2C1` [Example 32, 1-(3,4-Dihydro-1-isoquinolin-2-yl)-2-(2,2-diphenyl-ethylamino)-ethanone], the IC50 under setting [2] came to 230 nM.

Take `CS(=O)(=O)N(c1cccc2c1CN(CC(=O)N1c3ccccc3Oc3ccccc31)CC2)S(C)(=O)=O` [Compound 197, N-Methanesulfonyl-N-[2-(2-oxo-2-phenoxazin-10-yl-ethyl)-1,2,3,4-tetrahydro-isoquinolin-8-yl]-methanesulfonamide]: the IC50 under setting [1] is 3830 nM.

Consider `COc1cccc2c1CN(CC(=O)N1c3ccccc3Sc3ccccc31)CC2` [Compound 140, 2-(8-Methoxy-3,4-dihydro-1H-isoquinolin-2-yl)-1-phenothiazin-10-yl-ethanone], for which the 50% inhibitory concentration (IC50) under setting [1] was found to be 2330 nM.

For `COc1cccc2c1CN(CC(=O)Nc1ccc(Oc3ccccc3)cc1)CC2` [Compound 172, 2-(8-Methoxy-3,4-dihydro-1H-isoquinolin-2-yl)-N-(4-phenoxy-phenyl)-acetamide], the IC50 under setting [1] came to 6270 nM.

Take `Oc1cccc2c1CN(Cc1ccc(SC(F)(F)F)cc1)CC2` [Example 94, 2-(4-Trifluoromethylsulfanyl-benzyl)-1,2,3,4-tetrahydro-isoquinolin-8-ol]: the IC50 under setting [2] was determined as 2170 nM.

Take `O=C(NCCN1CCc2cccc(O)c2C1)N1c2ccccc2Oc2ccccc21` [Compound 163, Phenoxazine-10-carboxylic acid [2-(8-hydroxy-3,4-dihydro-1H-isoquinolin-2-yl)-ethyl]-amide]: under setting [1], the IC50 was 770 nM.

As for `O=C(CN1CCc2cccc(O)c2C1)NCCCn1c2ccccc2c2ccccc21` [Compound 129, N-(3-Carbazol-9-yl-propyl)-2-(8-hydroxy-3,4-dihydro-1H-isoquinolin-2-yl)-acetamide], under setting [1], the IC50 was 2480 nM.

Take `O=C(CN1CCc2ccccc2C1)N(Cc1ccccc1)Cc1ccccc1` [Example 16, N,N-Dibenzyl-2-(3,4-dihydro-1H-isoquinolin-2yl)-acetamide]: the IC50 under setting [2] turned out to be 880 nM.

Consider `O=C(CN1CCc2cccc(O)c2C1)N1c2ccccc2OCC1c1ccccc1` (centres unmarked) [Example 70, 2-(8-Hydroxy-3,4-dihydro-1H-isoquinolin-2-yl)-1-(3-phenyl-2,3-dihydro-benzo[1,4]oxazin-4-yl)-ethanone], for which, under setting [2], the IC50 worked out at 2140 nM.

For the compound `Oc1cccc2c1CN(Cc1cc(C(F)(F)F)cc(C(F)(F)F)c1)CC2` [Example 95, 2-(3,5-Bis-trifluoromethyl-benzyl)-1,2,3,4-tetrahydro-isoquinolin-8-ol], the IC50 under setting [2] came to 1710 nM.

Take `COc1cccc2c1CN(CC(=O)NCCC(c1ccccc1)c1ccccc1)CC2` [Example 22, N-(3,3-Diphenyl-propyl)-2-(8-methoxy-3,4-dihydro-1H-isoquinolin-2-yl)-acetamide]: the IC50 under setting [2] is 810 nM.

`c1ccc(C(CCNCCN2CCc3ccccc3C2)c2ccccc2)cc1` [Example 46, [2-(3,4-Dihydro-1H-isoquinolin-2-yl)-ethyl]-(3,3-diphenyl-propyl)-amine]: the IC50 under setting [2] came to 290 nM.

Regarding `O=C(CN1CCc2cccc(O)c2C1)N1c2ccccc2Sc2ccc(C(F)(F)F)cc21` [Compound 145, 2-(8-Hydroxy-3,4-dihydro-1H-isoquinolin-2-yl)-1-(2-trifluoromethyl-phenothiazin-10-yl)-ethanone], under setting [1], the IC50 turned out to be 2630 nM.

For the compound `O=C(CN1CCc2cccc(O)c2C1)N(Cc1ccccc1)Cc1ccccc1` [Example 23, N,N-Dibenzyl-2-(8-hydroxy-3,3-dihydro-1H-isoquinolin-2-yl)-acetamide], under setting [2], the IC50 worked out at 260 nM.

Take `COc1cccc2c1CN(CC(=O)NN(c1ccccc1)c1ccccc1)CC2` [Compound 168, (8-Methoxy-3,4-dihydro-1H-isoquinolin-2-yl)-acetic acid N′,N′-diphenyl-hydrazide]: the IC50 under setting [1] worked out at 2010 nM.

On to `COc1cccc2c1CN(CCNC(=S)NC(c1ccccc1)c1ccccc1)CC2` [Compound 133, 1-Benzhydryl-3-[2-(8-methoxy-3,4-dihydro-1H-isoquinolin-2-yl)-ethyl]-thiourea], for which the IC50 under setting [1] came out at 600 nM.

Consider `COc1cc2c(cc1OC)CN(CCC(=O)NCCC(c1ccccc1)c1ccccc1)CC2` [Compound 125, 3-(6,7-Dimethoxy-3,4-dihydro-1H-isoquinolin-2-yl)-N-(3,3-diphenyl-propyl)-propionamide], for which the IC50 under setting [1] was found to be 380 nM.

With `COc1cc2c(cc1OC)CN(CC(=O)N1c3ccccc3S(=O)(=O)c3ccccc31)CC2` [Compound 151, 2-(6,7-Dimethoxy-3,4-dihydro-1H-isoquinolin-2-yl)-1-(5,5-dioxo-5H-5lambda*6*-phenothiazin-10-yl)-ethanone], the IC50 under setting [1] worked out at 7440 nM.

Regarding `O=C(CN1CCc2ccccc2C1)NC(c1ccccc1)c1ccccc1` [Example 14, N-Benzyhydryl-2-(3,4-dihydro-1H-isoquinolin-2-yl)-acetamide], the IC50 under setting [2] came out at 1590 nM.

Take `COc1cccc2c1CN(CC(=O)N1Cc3ccccc3Oc3ccccc31)CC2` [Compound 207, 1-(11H-Dibenzo[b,f][1,4]oxazepin-10-yl)-2-(8-methoxy-3,4-dihydro-1H-isoquinolin-2-yl)-ethanone]: under setting [1], the IC50 came to 940 nM.

Regarding `Nc1cccc2c1CN(CCC(=O)NCCC(c1ccccc1)c1ccccc1)CC2` [Compound 127, 3-(8-Amino-3,4-dihydro-1H-isoquinolin-2-yl)-N-(3,3-diphenyl-propyl)-propionamide], the IC50 under setting [1] is 650 nM.

As to `CCOC(=O)C1CN(C(=O)CN2CCc3cccc(OC)c3C2)c2ccccc2O1` (centres unmarked) [Compound 171, 4-[2-(8-Methoxy-3,4-dihydro-1H-isoquinolin-2-yl)-acetyl]-3,4-dihydro-2H-benzo[1,4]oxazine-2-carboxylic acid ethyl ester], the IC50 under setting [1] turned out to be 1750 nM.

Regarding `Oc1cccc2c1CN(CC(c1ccccc1)c1ccccc1)CC2` [Example 11, 2-(2,2-Diphenyl-ethyl)-1,2,3,4-tetrahydro-isoquinoline-8-ol], the IC50 under setting [2] was 600 nM.

In the case of `COc1cccc2c1CN(CC(=O)NCCCC(c1ccccc1)c1ccccc1)C2` [Compound 82, N-(4,4-diphenyl-butyl)-2-(4-methoxy-1,3-dihydro-isoindol-2-yl)-acetamide], under setting [1], the IC50 came to 1060 nM.

Under “IC50, Table 1, SH-SY-5Y hNav1.8 cells, inhibition of membrane depolarisation, FLIPR membrane potential dye, 250 nM TTX, test concentration range 100 μM-0.05 μM”, `O=C(CN1CCc2cccc(O)c2C1)NCCC(c1ccccc1)c1ccccc1` [Example 27, N-(3,3-Diphenyl-propyl)-2-(8-hydroxy-3,4-dihydro-1H-isoquinolin-2-yl)-acetamide] registered an IC50 of 1020 nM.

Compound `COc1cccc2c1CN(CC(=O)NCC[S+]([O-])C(c1ccccc1)c1ccccc1)CC2` (centres unmarked) [Compound 103, N-[2-(Diphenyl-methanesulfinyl)-ethyl]-2-(8-methoxy-3,4-dihydro-1H-isoquinolin-2-yl)-acetamide] came in with an IC50 of 2250 nM.

In the case of `COc1cccc2c1CN(CC(=O)N(c1ccccc1O)c1ncccc1N)CC2` [Compound 188, N-(3-Amino-pyridin-2-yl)-N-(2-hydroxy-phenyl)-2-(8-methoxy-3,4-dihydro-1H-isoquinolin-2-yl)-acetamide], the IC50 under setting [1] was determined as 12000 nM.

For the compound `COc1ccc(C(CCNC(=O)CN2CCc3cccc(OC)c3C2)c2ccc(OC)cc2)cc1` [Compound 115, N-[3,3-Bis-(4-methoxy-phenyl)-propyl]-2-(8-methoxy-3,4-dihydro-1H-isoquinolin-2-yl)-acetamide], the IC50 under setting [1] was 2350 nM.

As to `O=C(CN1CCc2cccc(O)c2C1)NN(c1ccccc1)c1ccccc1` [Compound 167, (8-Hydroxy-3,4-dihydro-1H-isoquinolin-2-yl)-acetic acid N′,N′-diphenyl-hydrazide], the IC50 under setting [1] turned out to be 4510 nM.

Regarding `COc1cccc2c1CN(CC(=O)N1c3ccccc3Oc3ccccc31)C2` [Compound 196, 2-(4-Methoxy-1,3-dihydro-isoindol-2-yl)-1-phenoxazin-10-yl-ethanone], the IC50 under setting [1] is 930 nM.

In the case of `Nc1cccc2c1CN(CC(=O)NC(c1ccccc1)c1ccccc1)CC2` [Compound 108, 2-(8-Amino-3,4-dihydro-1H-isoquinolin-2-yl)-N-benzhydryl-acetamide], the IC50 under setting [1] stood at 3480 nM.

The values are drawn from patent US20070043024A1, “Azacyclic compounds as inhibitors of sensory neurone specific channels” (priority 2003, published 2007).
